The target of assay [1] is T1, ICE (Homo sapiens, UniProt P29466).
T1 sequence (P29466 120-297 limits assumed): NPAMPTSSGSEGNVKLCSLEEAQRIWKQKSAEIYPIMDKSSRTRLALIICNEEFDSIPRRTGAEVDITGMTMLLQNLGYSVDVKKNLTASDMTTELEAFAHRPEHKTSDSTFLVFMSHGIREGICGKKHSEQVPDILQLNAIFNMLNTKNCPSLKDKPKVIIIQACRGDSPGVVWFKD
T1 sequence (P29466 317-404 limits assumed): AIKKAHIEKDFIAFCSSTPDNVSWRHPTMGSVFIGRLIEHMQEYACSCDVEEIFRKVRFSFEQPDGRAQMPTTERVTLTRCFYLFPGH
As to the kind of experiment: Enzyme assay with UV-visible substrate (visible ICE assay, Succinyl-Tyr-Val-Ala-Asp-pNitroanilide). The assay is classed as biochemical. The essentials:
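Colorimetric caspase-1 activity: 15 min enzyme-inhibitor preincubation (RT), then Suc-Tyr-Val-Ala-Asp-pNA; 405-603 nm kinetics, 20 min, 37° C. Ki from rate fitting.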

Assay [2] relates to IL-1β, human whole blood. Description: Whole blood assay for IL-1β production. The format is cell-based. The following applies: read-out: Whole human blood IC50. As for the experimental part:
The whole blood assay is a simple method for measuring the production of IL-1b (or other cytokines) and the activity of potential inhibitors. The complexity of this assay system, with its full complement of lymphoid and inflammatory cell types, spectrum of plasma proteins and red blood cells is an ideal in vitro representation of human in vivo physiologic conditions.
Pyrogen-free syringes (˜30 cc) Pyrogen-free sterile vacuum tubes containing lyophilized Na2EDTA (4.5 mg/10 ml tube) Human whole blood sample (˜30-50 cc) 1.5 ml eppendorf tubes Test compound stock solutions (˜25 mM in DMSO or other solvent) Endotoxin-free sodium chloride solution (0.9%) and HBSS Lipopolysaccharide (Sigma; Cat. # L-3012) stock solution at 1 mg/ml in HBSS
IL-1β ELISA Kit (R & D Systems; Cat # DLB50)
TNFα ELISA Kit (R & D Systems; Cat # DTA50)
Whole Blood Assay Experimental Procedure:
Set incubator or water bath at 30° C. Aliquot 0.25 ml of blood into 1.5 ml eppendorf tubes. Note: be sure to invert the whole blood sample tubes after every two aliquots. Differences in replicates may result if the cells sediment and are not uniformly suspended. Use of a positive displacement pipette will also minimize differences between replicate aliquots.
Prepare drug dilutions in sterile pyrogen-free saline by serial dilution. A dilution series which brackets the apparent Ki for a test compound determined in an ICE inhibition assay is generally used for the primary compound screen.
Add 25 μl test compound dilution or vehicle control and gently mix the sample. Then add 5.0 μl LPS solution (250 ng/ml stocked prepared fresh: 5.0 ng/ml final concentration LPS), and mix again. Incubate the tubes at 30° C. in a water bath for 16-18 hr with occasional mixing. Alternatively, the tubes can be placed in a rotator set at 4 rpm for the same incubation period. This assay should be set up in duplicate or triplicate with the following controls: negative control—no LPS; positive control—no test inhibitor; vehicle control—the highest concentration of DMSO or compound solvent used in the experiment. Additional saline is added to all control tubes to normalize volumes for both control and experimental whole blood test samples
After the incubation period, whole blood samples are centrifuged for 10 minutes at ˜2000 rpm in the microfuge, plasma is transferred to a fresh microfuge tube and centrifuged at 1000×g to pellet residual platelets if necessary. Plasma samples may be stored frozen at −70° C. prior to assay for cytokine levels by ELISA.
We have used R & D Systems (614 McKinley Place N.E. Minneapolis, Minn. 55413) Quantikine kits for measurement of IL-1β and TNF-α. The assays are performed according to the manufacturer's directions.
We have observed IL-1β levels of ˜1-5 ng/ml in positive controls among a range of individuals. A 1:200 dilution of plasma for all samples has been sufficient in our experiments for ELISA results to fall on the linear range of the ELISA standard curves. It may be necessary to optimize standard dilutions if you observe differences in the whole blood assay. Nerad, J. L. et al., J. Leukocyte Biol., 52, pp. 687-692 (1992).

Where [3] appears, read: Homo sapiens, * = values obtained upon reassay.

The structures appear in SMILES notation. Like-named read-outs stand apart in the source and are kept apart here.

Take `COCC(=O)N1C[C@H](NC(=O)c2cc(C)c(O)c(C)c2)C(=O)N(CC(=O)N[C@H](C=O)CC(=O)O)c2ccc(F)cc21` [Compound 689b-1, (3S)-3-[(3S)-2-Oxo-3-(3,5-dimethyl-4-hydroxybenzoyl)amino-5-methoxyacetyl-2,3,4,5-tetrahydro-7-fluoro-1H-1,5-benzodiazepine-1-acetylamino]-4-oxobutyric acid]: affinity in assay [1] (Table 27) was put at a Ki of 3.5 nM. Further, the IC50 (commonly the concentration that gives 50% inhibition) in assay [2] (Homo sapiens, Table 27) came to 2700 nM.
For `O=C[C@H](CC(=O)O)NC(=O)[C@@H]1CCCN2C(=O)CC[C@H](NC(=O)c3cnns3)C(=O)N12` [Compound 446], the Ki (usually a dissociation constant, usually derived from enzyme kinetics or from competition with a known ligand) in assay [1] (Table 5) was determined as 62 nM. The IC50 in assay [2] (setting [3]) was 3000 nM.
Consider `COC(=O)N1C[C@H](NC(=O)c2cc(C)c(O)c(C)c2)C(=O)N(CC(=O)N[C@H](C=O)CC(=O)O)c2ccccc21` [Compound 723], for which the Ki in assay [1] (Table 27) was 2.3 nM. Also, the IC50 in assay [2] (Homo sapiens, Table 27) came out at 2000 nM.
On the same counts, the results for `Nc1c(Cl)cc(C(=O)N[C@H]2CN(C(=O)CO)c3ccccc3N(CC(=O)N[C@H](C=O)CC(=O)O)C2=O)cc1Cl` [Compound 697] are 1.8 nM and 5000 nM.
The matching figures for `Cc1cc(C(=O)N[C@H]2CN(C(=O)C(C)C)c3ccccc3N(CC(=O)N[C@H](C=O)CC(=O)O)C2=O)cc(C)c1O` [Compound 725]: 3.7 nM and 3000 nM.
In assay [1] (Table 5), `O=C[C@H](CC(=O)O)NC(=O)[C@@H]1CCCN2C(=O)CC[C@H](NC(=O)c3ncc[nH]3)C(=O)N12` [Compound 445] had a Ki of 135 nM. For the same molecule, the IC50 in assay [2] (setting [3]) was determined as 4000 nM.
`Cc1cc(C(=O)N[C@H]2CNc3ccccc3N(CC(=O)N[C@H](C=O)CC(=O)O)C2=O)cc(C)c1O` [Compound 727] displayed a Ki in assay [1] (Table 27) of 50 nM. The IC50 in assay [2] (Homo sapiens, Table 27) was determined as 2300 nM.
With `CC(=O)N(C)c1ccc(C(=O)N[C@H]2CCC(=O)N3CCC[C@@H](C(=O)N[C@H](C=O)CC(=O)O)N3C2=O)cc1` [Compound 448], in assay [1] (Table 5), the affinity corresponds to a Ki of 130 nM. Further, in assay [2] (setting [3]), the IC50 turned out to be 4000 nM.
In assay [1] (Table 27), `CCC(=O)N1C[C@H](NC(=O)c2cc(C)c(O)c(C)c2)C(=O)N(CC(=O)N[C@H](C=O)CC(=O)O)c2ccccc21` [Compound 724] yielded a Ki of 2 nM. In addition, in assay [2] (Homo sapiens, Table 27), the IC50 turned out to be 1800 nM.
The matching figures for `COc1cc(C(=O)N[C@H]2CN(C(=O)CO)c3ccccc3N(CC(=O)N[C@H](C=O)CC(=O)O)C2=O)cc(OC)c1O` [Compound 732]: 5 nM and 1800 nM.
On the same counts, the results for `CS(=O)(=O)CC(=O)N1C[C@H](NC(=O)c2nccc3ccccc23)C(=O)N(CC(=O)N[C@H](C=O)CC(=O)O)c2ccccc21` [Compound 735] are 6 nM and 10000 nM.
In turn, `CCOC(=O)C(=O)N1C[C@H](NC(=O)c2cc(C)c(O)c(C)c2)C(=O)N(CC(=O)N[C@H](C=O)CC(=O)O)c2ccccc21` [Compound 729] registered a Ki in assay [1] (Table 27) of 28 nM. The IC50 in assay [2] (Homo sapiens, Table 27) turned out to be 2800 nM.
In turn, `CC(=O)N1C[C@H](NC(=O)c2ccccc2)C(=O)N(CC(=O)N[C@H](C=O)CC(=O)O)c2c(C)cc(C)cc21` [Compound 605o, (3S)-3-[(3S)-2-Oxo-3-benzoylamino-5-acetyl-2,3,4,5-tetrahydro-7,9-dimethyl-1H-1,5-benzodiazepin-1-acetylamino]-4-oxo-butyric acid] yielded a Ki in assay [1] (Table 5) of 72 nM. The IC50 in assay [2] (setting [3]) turned out to be 18000 nM.
`O=C[C@H](CC(=O)O)NC(=O)CN1C(=O)[C@@H](NC(=O)c2nccc3ccccc23)CN(C=O)c2ccccc21` [Compound 698, (3S)-3-[(3S)-2-oxo-3-isoquinolin-1-oylamino-5-formyl-2,3,4,5-tetrahydro-1H-1,5-benzodiazepine-1-acetylamino]-4-oxobutyric acid] gave a Ki in assay [1] (Table 27) of 18 nM. For the same molecule, in assay [2] (Homo sapiens, Table 27), the IC50 was found to be 13500 nM.
On the same counts, the results for `COc1cc(C(=O)N[C@H]2CN(C(=O)CO)c3ccccc3N(CC(=O)N[C@H](C=O)CC(=O)O)C2=O)ccc1O` [Compound 733] are 5 nM and 1500 nM.
In turn, `CC(=O)N[C@@H](CC(=O)O)C(=O)N[C@H]1CN(C(=O)CO)c2ccccc2N(CC(=O)N[C@H](C=O)CC(=O)O)C1=O` [Compound 730] registered a Ki in assay [1] (Table 27) of 90 nM. For the same molecule, in assay [2] (Homo sapiens, Table 27), the IC50 was 8000 nM.
Turning to `Cc1cc(C(=O)N[C@H]2CN(C(=O)COc3ccccc3)c3ccccc3N(CC(=O)N[C@H](C=O)CC(=O)O)C2=O)cc(C)c1O` [Compound 721], the Ki in assay [1] (Table 27) was 1.3 nM. In assay [2] (Homo sapiens, Table 27), the IC50 is 5000 nM.
In assay [1] (Table 17), `COc1c(Cl)cc(C(=O)N[C@H]2CN(C(=O)CO)c3ccccc3N(CC(=O)N[C@H](C=O)CC(=O)O)C2=O)cc1Cl` [Compound 918] yielded a Ki of 7 nM. Moreover, the IC50 in assay [2] (Homo sapiens, Table 17) was found to be 1150 nM.
The molecule `O=C[C@H](CC(=O)O)NC(=O)CN1C(=O)[C@@H](NC(=O)c2nccc3ccccc23)CN(C(=O)Cc2cccnc2)c2ccccc21` [Compound 734] yielded a Ki in assay [1] (Table 27) of 9 nM. Further, the IC50 in assay [2] (Homo sapiens, Table 27) came out at 6000 nM.
For `CCOC1OC(=O)C[C@@H]1NC(=O)CN1C(=O)[C@@H](NC(=O)c2cc(C)c(O)c(C)c2)CN(C(=O)CO)c2ccccc21` (mixture of isomers) [Compound 692b, (3S)-2-Oxo-3-(3,5-dimethyl-4-hydroxybenzoyl)amino-5-hydroxyacetyl-N-[(2RS,3S)-ethoxy-5-oxo-tetrahydrofuran-3-yl]-2,3,4,5-tetrahydro-1H-1,5-benzodiazepine-1-acetamide], the IC50 in assay [2] (Table 17) came out at 1800 nM.
Molecule `CC(C)(C)OC(=O)C[C@@H](C=NOCCc1ccccc1)NC(=O)[C@@H]1CCCN2C(=O)CC[C@H](NC(=O)c3ccccc3)C(=O)N12` [Compound 307b, [3S(1S,9S)3-(9-Benzoylamino-6,10-dioxo-1,2,3,4,7,8,9,10-octahydro-6H-pyridazino-[1,2-a][1,2]diazapine-1-carboxamido)-amino]-4-oxobutanoic acid t-butyl ester, O-(2-(phenyl)ethyl)oxime] registered a Ki in assay [1] (Table 5) of 165 nM. Also, in assay [2] (* = values obtained upon reassay), the IC50 worked out at 14000 nM.
With `COCC(=O)N1C[C@H](NC(=O)c2cc(Cl)c(O)c(Cl)c2)C(=O)N(CC(=O)N[C@H]2CC(=O)OC2OCc2ccccc2)c2ccccc21` (mixture of isomers) [Compound 688a, (3S)-2-Oxo-3-(3,5-dichloro-4-hydroxybenzoyl)amino-5-methoxyacetyl-N-[(2RS,3S)-benzyloxy-5-oxo-tetrahydrofuran-3-yl]-2,3,4,5-tetrahydro-1H-1,5-benzodiazepine-1-acetamide], in assay [2] (Homo sapiens, Table 17), the IC50 came to 3000 nM.
In assay [1] (Table 27), `CCOC(=O)N1C[C@H](NC(=O)c2cc(C)c(O)c(C)c2)C(=O)N(CC(=O)N[C@H](C=O)CC(=O)O)c2ccccc21` [Compound 722] came in with an inhibitory constant (Ki) of 5 nM. For the same molecule, the IC50 in assay [2] (Homo sapiens, Table 27) worked out at 5000 nM.
Take `CC(=O)N1C[C@H](NC(=O)c2cc(C)c(O)c(C)c2)C(=O)N(CC(=O)N[C@H]2CC(=O)OC2OCc2ccccc2)c2ccccc21` (mixture of isomers) [Compound 670, (3S)-2-Oxo-3-(3,5-dimethyl-4-hydroxybenzoyl)amino-5-acetyl-N-[(2RS,3S)-benzyloxy-5-oxo-tetrahydrofuran-3-yl]-2,3,4,5-tetrahydro-1H-1,5-benzodiazepine-1-acetamide]: in assay [2] (Homo sapiens, Table 17), the IC50 came out at 4500 nM.
In the case of `Cc1cc(C(=O)N[C@H]2CN(C(=O)CO)c3ccccc3N(CC(=O)NC3CC(=O)OC3OCc3ccccc3)C2=O)cc(C)c1O` (stereo partly drawn) [Compound 695c, (3S)-2RS-Oxo-3-(3,5-dimethyl-4-hydroxybenzoyl)amino-5-hydroxyacetyl-N-(2-benzyloxy-5-oxo-tetrahydrofuran-3-yl)-2,3,4,5-tetrahydro-1H-1,5-benzodiazepine-1-acetamide], the IC50 in assay [2] (Table 17) turned out to be 2500 nM.

The values are drawn from US20120165319A1, “INHIBITORS OF INTERLEUKIN-1 BETA CONVERTING ENZYME” (VERTEX PHARMACEUTICALS INCORPORATED, priority 1995, published 2012).
